This is an account of results in patent US9562035B2, “Benzamide derivative useful as FASN inhibitors for the treatment of cancer” (Janssen Pharmaceutica NV, priority 2013, dated 2017).

Bounds are passed on as bounds.

For experiment [1], the target named is T1, hFASN enzyme (full length) (Homo sapiens, UniProt P49327).
T1 construct: 10 μL hFASN enzyme (full length, 300 ng, purified in house); made in house
The experiment in a line: Fatty Acid Synthase (FASN) Inhibition Scintillation Proximity Assay. The following applies: for inhibition at 10 µM: read-out: FASN % Effect @1E−05M; for IC50: mean where tested more than once, ~ = standard error of pIC50 larger than 0.5. The class given is biochemical. Put shortly: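 Eight compound concentrations (0.01–30 μM) tested in pH 7.5 phosphate buffer with DTT; human full-length enzyme converted [3H]-acetyl-CoA plus malonyl-CoA, with NADPH, over 60 min at room temperature. Hydrophobic [3H]-palmitate detected by bead proximity scintillation imaging; control-normalised data fitted for IC50/pIC50.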

In experiment [2] the test system is A2780 ovarian cells. Put plainly: A2780 Ovarian Cell Proliferation Assay in Lipid Reduced Medium, without Palmitate. The class given is cell-based. The note with it: Homo sapiens, A2780; lipid reduced medium, without palmitate, 96 h, MTT; read-out: Proliferation A2780 w/o Palmitate pIC50 (converted). Summed up:
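A2780 cells were seeded in 10% FCS medium and switched next day to 10% lipid-reduced serum without palmitate. Compounds at 0.01–30 μM were added with 0.2% DMSO, 0.2% fatty-acid-free BSA and 0.25% ethanol final. After 96 h, MTT absorbance at 544 nm was normalized to plate controls, and IC50/pIC50 came from a 4-parameter logistic fit.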

For experiment [3], the system named is A2780 ovarian cells. The experiment in a line: A2780 Ovarian Cell Proliferation Assay in Lipid Reduced Medium, with Palmitate (control). It counts as cell-based. The following applies: Homo sapiens, A2780; lipid reduced medium, 25 μM palmitate, 96 h, MTT; read-out: Proliferation A2780 with Palmitate pIC50 (converted). Summed up: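 Read-out was MTT absorbance at 544 nm after 96 h at 37 °C. Cells grown overnight in RPMI1640/10% FCS were moved to 10% lipid-reduced serum with compound plus palmitate (final 25 μM, 0.2% fatty-acid-free BSA, 0.2% DMSO). IC50 came from least-squares curve fitting, expressed as −log(IC50).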

For experiment [4], the system named is LNCaP_Vancouver prostate cells. The experiment in a line: In Vitro LNCaP Vancouver Prostate Cell Proliferation Assay in Lipid Reduced Medium. The note with it: lipid reduced serum, 96 h, read-out: Vancouver Cells pIC50 (converted). The class given is cell-based. Here is the method: LNCaP_Vancouver prostate cells were obtained from the Vancouver Prostate Cancer Centre. Cells were maintained in RPMI-1640, 10% Fetal Calf Serum (FCS, Hyclone), 2 mM glutamine and 50 μg/ml Gentamicin.
For the proliferation experiment 1500 LNCaP_Vancouver cells per well were seeded in a 384-well black with clear bottom plate (costar 3712BC) in 40 μl RPMI-1640, 10% Lipid reduced serum (LRS, Hyclone), 50 μg/ml Gentamicin and 2 mM Glutamine and incubated at 37° C., 5% CO2. The next day 10 μl of test compound/DMSO diluted in medium was added (3E-5M, 1E-5M, 3E-6M, 1E-6M, 3E-7M, 1E-7M, 3E-8M, 1E-8M final concentration). Compounds were tested in duplicate. After 96 h incubation at 37° C., 5% CO2 25 μl ATP-glow mix was added. The plate was incubated for 30 min at 37° C. and luminescence was measured with the Envision.
(§1) pIC50 values were calculated as follows. Raw data generated by the instruments were normalized to % Controlmin values, which were calculated as: % Controlmin=100*(x−mLC)/(mHC−mLC),
(§2) where mLC and mHC are the means of the low control wells and high control wells on the plate, after manual exclusion of outliers. The relation between the % Controlmin values and concentration was fitted to a 4-parameter logistic curve using a non-linear least squares regression method to determine the pIC50 value. Outlying data points were excluded manually to get a correct fit. The pIC50 corresponds to −log 10(IC50), if the IC50 is expressed in molar units (http://www.ncbi.nlm.nih.gov/books/NBK91994). The IC50 parameter was always determined by non-linear regression, but one or more of the other parameters may have been held fixed on a relevant input value, such as 0 for the bottom values.
(§3) For dose response curves with FASN inhibitors in LNCaP_Vancouver or PC-3M-Luc_C6 cells the curves bottom out around 30 to 40% of the control value. A standard fit PL2, forcing the lower bound to this level was used.
(§4) Representative compounds of the present invention were tested according to the procedure as described in Biological Example 4a and 4b above, with results as listed in Table BIO-4, below.

In experiment [5] the test system is PC-3M-Luc-C6 prostate cells. Put plainly: In Vitro PC-3M-Luc-C6 Prostate Cell Proliferation Assay in Lipid Reduced Medium. The class given is cell-based. The following applies: read-out: PC-3M-Luc-C6 Cells pIC50 (μM) (converted), lipid reduced serum, 96 h. Here is the method: PC-3M-Luc-C6 prostate cells were obtained from Xenogen Corporation. Cells were maintained in MEM supplemented with 10% Fetal Calf Serum (FCS, Hyclone), 2 mM glutamine, 1 mM sodium pyruvate, 1% BME vitamins (available from for example, Sigma Aldrich), 0.1 mM non Essential Amino Acid and 50 μg/ml Gentamicin. The cells were passaged twice a week.
1000 PC-3M-Luc-C6 prostate cells (Xenogen) were seeded in a 384-well black with clear bottom plate (costar 3712BC) in 40 μl MEM, 10% LRS (Hyclo ne), 50 μg/ml Gentamicin, 2 mM Glutamine, 1 mM Sodium pyruvaat, 1% BME vitamins and 0.1 mM non Essential Amino Acid and incubated at 37° C., 5% CO2. The next day 10 μl test compound/DMSO diluted in medium was added (3E-5M, 1E-5M, 3E-6M, 1E-6M, 3E-7M, 1E-7M, 3E-8M, 1E-8M final concentration). Compounds were tested in duplicate. After 96 h incubation at 37° C., 5% CO2 25 μl ATP-glow mix was added. The plate was incubated for 30 min at 37° C. and luminescence was measured with the Envision.
as §1, §2, §3, §4

Experiment [6] deals with T2, FASN Keto-reductase Domain (Homo sapiens, UniProt P49327).
T2 construct: 10 μL hFASN enzyme (full length, 300 ng, purified in house) and 360 μM NADPH; made in house
T2 sequence (P49327 whole entry, the tested form may be a part): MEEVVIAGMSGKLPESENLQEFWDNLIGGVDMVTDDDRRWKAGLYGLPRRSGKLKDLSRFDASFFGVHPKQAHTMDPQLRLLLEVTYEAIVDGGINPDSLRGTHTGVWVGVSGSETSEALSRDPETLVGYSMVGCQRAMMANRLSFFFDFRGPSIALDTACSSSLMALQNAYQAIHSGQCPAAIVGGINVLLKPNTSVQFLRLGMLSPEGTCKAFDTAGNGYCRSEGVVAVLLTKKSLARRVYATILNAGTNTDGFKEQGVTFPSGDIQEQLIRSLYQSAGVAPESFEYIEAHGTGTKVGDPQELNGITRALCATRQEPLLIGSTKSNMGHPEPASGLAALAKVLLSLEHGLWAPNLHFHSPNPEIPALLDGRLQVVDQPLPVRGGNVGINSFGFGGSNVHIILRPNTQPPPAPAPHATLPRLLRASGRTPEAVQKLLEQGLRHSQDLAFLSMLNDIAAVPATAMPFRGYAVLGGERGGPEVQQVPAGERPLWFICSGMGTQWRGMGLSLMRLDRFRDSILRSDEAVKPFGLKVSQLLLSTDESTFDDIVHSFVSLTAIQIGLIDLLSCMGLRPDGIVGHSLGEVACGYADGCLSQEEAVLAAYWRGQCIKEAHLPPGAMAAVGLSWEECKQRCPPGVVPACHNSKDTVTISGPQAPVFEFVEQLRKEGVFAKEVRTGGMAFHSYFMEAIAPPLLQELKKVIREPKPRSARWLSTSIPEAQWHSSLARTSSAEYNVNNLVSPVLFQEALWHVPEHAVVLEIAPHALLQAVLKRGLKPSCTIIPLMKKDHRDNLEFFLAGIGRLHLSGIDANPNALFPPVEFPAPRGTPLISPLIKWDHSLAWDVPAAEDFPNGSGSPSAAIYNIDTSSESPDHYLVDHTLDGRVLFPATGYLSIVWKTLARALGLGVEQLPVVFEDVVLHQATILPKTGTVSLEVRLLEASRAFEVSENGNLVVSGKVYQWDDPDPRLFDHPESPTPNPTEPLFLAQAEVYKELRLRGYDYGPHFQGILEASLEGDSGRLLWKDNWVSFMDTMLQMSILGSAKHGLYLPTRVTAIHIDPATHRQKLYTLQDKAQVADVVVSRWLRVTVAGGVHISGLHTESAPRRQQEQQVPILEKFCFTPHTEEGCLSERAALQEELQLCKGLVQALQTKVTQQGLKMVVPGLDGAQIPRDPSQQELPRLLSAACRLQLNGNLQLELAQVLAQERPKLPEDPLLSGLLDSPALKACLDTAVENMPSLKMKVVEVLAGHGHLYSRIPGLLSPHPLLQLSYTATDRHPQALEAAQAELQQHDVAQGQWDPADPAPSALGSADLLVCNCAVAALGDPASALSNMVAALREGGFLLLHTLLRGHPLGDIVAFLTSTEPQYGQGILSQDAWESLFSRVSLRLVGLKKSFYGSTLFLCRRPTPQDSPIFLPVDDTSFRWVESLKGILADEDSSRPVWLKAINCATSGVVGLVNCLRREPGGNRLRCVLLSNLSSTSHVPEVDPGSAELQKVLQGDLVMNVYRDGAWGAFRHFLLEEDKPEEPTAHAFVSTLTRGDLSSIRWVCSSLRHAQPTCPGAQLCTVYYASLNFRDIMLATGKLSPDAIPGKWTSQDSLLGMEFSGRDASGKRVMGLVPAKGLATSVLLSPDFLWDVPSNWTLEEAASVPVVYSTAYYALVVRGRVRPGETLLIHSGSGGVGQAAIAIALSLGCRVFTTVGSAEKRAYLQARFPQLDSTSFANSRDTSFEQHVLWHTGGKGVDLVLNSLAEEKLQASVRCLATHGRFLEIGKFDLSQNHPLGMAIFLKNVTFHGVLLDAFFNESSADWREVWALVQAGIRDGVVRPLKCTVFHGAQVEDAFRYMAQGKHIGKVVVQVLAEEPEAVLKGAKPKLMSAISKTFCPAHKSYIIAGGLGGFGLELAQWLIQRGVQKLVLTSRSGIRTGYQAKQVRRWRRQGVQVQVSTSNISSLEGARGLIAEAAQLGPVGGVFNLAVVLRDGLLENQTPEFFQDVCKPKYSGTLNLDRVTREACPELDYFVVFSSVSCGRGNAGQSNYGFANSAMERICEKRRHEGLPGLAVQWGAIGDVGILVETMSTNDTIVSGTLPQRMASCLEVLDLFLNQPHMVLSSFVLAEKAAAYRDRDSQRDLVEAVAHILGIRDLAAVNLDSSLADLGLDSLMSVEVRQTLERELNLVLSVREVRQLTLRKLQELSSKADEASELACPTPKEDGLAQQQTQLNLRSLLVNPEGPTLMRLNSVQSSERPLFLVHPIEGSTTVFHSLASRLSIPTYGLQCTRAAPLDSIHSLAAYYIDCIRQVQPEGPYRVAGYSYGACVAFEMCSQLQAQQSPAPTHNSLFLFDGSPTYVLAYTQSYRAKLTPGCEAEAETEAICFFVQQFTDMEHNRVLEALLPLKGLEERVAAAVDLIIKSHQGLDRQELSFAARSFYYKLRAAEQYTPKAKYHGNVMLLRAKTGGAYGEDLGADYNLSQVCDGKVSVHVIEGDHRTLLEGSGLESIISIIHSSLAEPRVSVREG
The experiment in a line: Fatty Acid Synthase Keto-Reductase Domain (FASN KR) Inhibition. The following applies: mean where tested more than once; read-out: FASN K-R Domain pIC50 (converted). The class given is biochemical. Put shortly:
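Keto-reductase activity followed as NADPH consumption (A340 drop between 0 and 20 min, room temperature) using in-house full-length hFASN, 360 μM NADPH and ethyl acetoacetate substrate (180 mM stock), pH 7.5 phosphate buffer.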

T1 sequence (P49327 whole entry): as the sequence (P49327 whole entry, the tested form may be a part) above

Take `CN(C)c1ccc(C(=O)N2CCC(c3ccc(-c4cnn(C)c4)cc3)CC2)cc1NC(=O)C1CC1` [Compound #273, N-(2-(dimethylamino)-5-(4-(4-(1-methyl-1H-pyrazol-4-yl)phenyl)piperidine-1-carbonyl)phenyl)cyclopropanecarboxamide]: in experiment [1], the inhibition at 10 µM was 98%. Also, the IC50 with A2780 ovarian cells [2] is 182 nM; in the experiment on A2780 ovarian cells [3], > 10000 nM; in experiment [4] it was 2190 nM; in experiment [5], 0.269 µM.
On to `CCC(CC)C(=O)Nc1cc(C(=O)N2CC(c3ccc(-c4cnn(C)c4)cc3)C2)ccc1C` [Compound 153, 2-ethyl-N-(2-methyl-5-(3-(4-(1-methyl-1H-pyrazol-4-yl)phenyl)azetidine-1-carbonyl)phenyl)butanamide], for which the IC50 in experiment [1] was 30.2 nM; in experiment [6], 61.7 nM; with A2780 ovarian cells [2], 38 nM; with A2780 ovarian cells [3], 4680 nM. For the same molecule, in experiment [1], the inhibition at 10 µM came out at 102%.
As for `CCCN1CCC(C(=O)Nc2cc(C(=O)N3CCC(c4ccc(-c5cnn(C)c5)cc4)CC3)ccc2C)CC1` [Compound 181, N-(2-methyl-5-(4-(4-(1-methyl-1H-pyrazol-4-yl)phenyl)piperidine-1-carbonyl)phenyl)-1-propylpiperidine-4-carboxamide], the IC50 in experiment [1] was 41.7 nM; in experiment [6], 110 nM; in the experiment on A2780 ovarian cells [2] it was 32.4 nM; in the experiment with A2780 ovarian cells [3] it was > 10000 nM. In addition, in experiment [1], the inhibition at 10 µM was found to be 108%.
In the case of `Cc1ccc(C(=O)N2CC(c3ccc(-c4ccc5cnccc5c4)cc3)C2)cc1NC(=O)c1ccc(NC(C)C)nc1` [Compound 29, 6-(isopropylamino)-N-(5-(3-(4-(isoquinolin-6-yl)phenyl)azetidine-1-carbonyl)-2-methylphenyl)nicotinamide], the IC50 is 33.9 nM in experiment [1], 29.5 nM in experiment [6], 174 nM in the experiment on A2780 ovarian cells [2] and > 15100 nM with A2780 ovarian cells [3]. Also, the inhibition at 10 µM in experiment [1] stood at 103%.
On to `Cc1ccc(C(=O)N2CCC(c3ccc(-c4cnn(C)c4)cc3)CC2)cc1NC(=O)c1ccc(N2CCOCC2)nc1` [Compound #91, N-(2-methyl-5-(4-(4-(1-methyl-1H-pyrazol-4-yl)phenyl)piperidine-1-carbonyl)phenyl)-6-morpholinonicotinamide], for which the IC50 in experiment [1] was 11.2 nM; in experiment [6], 25.1 nM; in the experiment on A2780 ovarian cells [2], 15.8 nM; with A2780 ovarian cells [3], > 10000 nM. Further, the inhibition at 10 µM in experiment [1] came to 109%.
Turning to `Cc1ccc(C(=O)N2CCC(c3ccc(-c4cnn(C)c4)cc3)CC2)cc1NC(=O)C(C)C` [Compound 156, N-(2-methyl-5-(4-(4-(1-methyl-1H-pyrazol-4-yl)phenyl)piperidine-1-carbonyl)phenyl)isobutyramide], the IC50 is 107 nM in experiment [1], 263 nM in experiment [6], 275 nM in the experiment with A2780 ovarian cells [2] and > 10000 nM in the experiment on A2780 ovarian cells [3]. For the same molecule, in experiment [1], the inhibition at 10 µM worked out at 100%.
In the case of `Cc1ccc(C(=O)N2CCC(c3ccc(-c4cnn(C)c4)cc3)CC2)cc1NC(=O)C1CCNCC1` [Compound 150, N-(2-methyl-5-(4-(4-(1-methyl-1H-pyrazol-4-yl)phenyl)piperidine-1-carbonyl)phenyl)piperidine-4-carboxamide], the IC50 in experiment [1] was 43.7 nM; in experiment [6], 155 nM; in the experiment with A2780 ovarian cells [2] it was 479 nM; in the experiment on A2780 ovarian cells [3], > 10000 nM. Further, in experiment [1], the inhibition at 10 µM was 110%.
In the same order, the values of `CCCCCCN1CCC(C(=O)Nc2cc(C(=O)N3CCC(c4ccc(-c5cnn(C)c5)cc4)CC3)ccc2C)CC1` [Compound 216] are 36.3 nM, 91.2 nM, 43.7 nM, 5620 nM and 113%.
In the same order, the values of `Cc1ccc(C(=O)N2CCC(c3ccc(-c4cnn(C)c4)cc3)CC2)cc1NC(=O)C1CCN(CCC(C)C)C1` (stereo not drawn) [Compound 195, 1-isopentyl-N-(2-methyl-5-(4-(4-(1-methyl-1H-pyrazol-4-yl)phenyl)piperidine-1-carbonyl)phenyl)pyrrolidine-3-carboxamide] are 69.2 nM, 191 nM, 110 nM, 9120 nM and 101%.
For the molecule `Cc1ccc(C(=O)N2CCC(c3ccc(-c4cnn(C)c4)cc3)CC2)cc1NC(=O)c1ccc(Cl)cc1` [Compound #100, 4-chloro-N-(2-methyl-5-(4-(4-(1-methyl-1H-pyrazol-4-yl)phenyl)piperidine-1-carbonyl)phenyl)benzamide], the IC50 in experiment [1] was 16.2 nM; in experiment [6], 44.7 nM; with A2780 ovarian cells [2] it was 93.3 nM; with A2780 ovarian cells [3], > 10000 nM. Besides, in experiment [1], the inhibition at 10 µM worked out at 111%.
In the same order, the values of `Cc1ccc(C(=O)N2CC(c3ccc(-c4ccnn4C)cc3)C2)cc1NC(=O)c1ccc(N2CCCCC2)nc1` [Compound 57, N-(2-methyl-5-(3-(4-(1-methyl-1H-pyrazol-5-yl)phenyl)azetidine-1-carbonyl)phenyl)-6-(piperidin-1-yl)nicotinamide] are 25.1 nM, 25.7 nM, 45.7 nM, 6310 nM and 106%.
In the same order, the values of `COc1ccc(C(=O)N2CCC(c3ccc(-c4cnn(C)c4)cc3)CC2)cc1NC(=O)c1ccc(NC(C)C)nc1` [Compound #251, 6-(isopropylamino)-N-(2-methoxy-5-(4-(4-(1-methyl-1H-pyrazol-4-yl)phenyl)piperidine-1-carbonyl)phenyl)nicotinamide] are 28.8 nM, 115 nM, 41.7 nM, 2400 nM and 112%.
